Test results as given in patent publication US8710021B2, “Inhibition of HRP-3 using modified oligonucleotides” (Bionucleon S.r.l., priority 2008, dated 2014).
“Also recorded” adds a separate entry of the source.

Assays:
[1] = system: GI-LI-N neuroblastoma xenograft; assay: Orthotopic neuroblastoma (GI-LI-N) xenograft survival in nude mice; type: in vivo; settings: VCR 1 mg/kg i.v. once a week for 5 weeks
Procedure: Mice were housed under specific pathogen-free conditions. The in vivo experiment was performed using five week old female athymic (Nude-nu) mice. Mice were anaesthetized with a mixture of xylazine (10 mg/kg) and ketamine (90 mg/kg) (Imalgene 1000, Merial Italia S.p.A., Milan, Italy), subjected to laparatomy, and orthotopically injected with the neuroblastoma (NB) cell line, GI-LI-N (1.5×10^6 cells in 10 μL of saline solution/mouse), in the capsule of the left adrenal gland, as previously reported (Pastorino F. et al., Cancer Res 63, 2003; Pastorino F. et al., Clin Cancer Res 2008). No mortality was observed following tumour cells implantation. NB tumours were allowed to grow from the injected cells for 22 days, then animals were randomly divided in 3 groups. One group was treated i.v., once a week for 5 weeks, with 1 mg/kg of vincristine (VCR, 5 administration in total). A second group of animals was treated with a combination of VCR (i.v. injection of 1 mg/kg, once a week for 5 weeks, 5 administration in total) and BN210 (i.p. injection of 7 mg/kg, 5 days/week, 20 administrations in total). Negative control mice were treated with HEPES-buffered saline. The significance of the differences between experimental groups (n=8 mice/group) in the survival experiments was determined by Kaplan-Meier curves by the use of Chi square log-rank test. […]

GI-LI-N cells = settings: 48 h
HRP-3 [2] = target: T1, HRP-3 (Homo sapiens, UniProt Q9Y3E1); assay: 3T3 migration in vitro assay: prevention of HRP-3 function by DNA duplexes; type: cell-based, mouse
T1 construct: The HRP-3 coding region was cloned into the pET30 vector using EcoRI and NdeI as restriction sites; made in house; host or cells: E. coli BL21
Procedure: All the four DNA duplexes were tested in our 3T3 migration in vitro assay to see if they were able to prevent HRP-3 function by binding its PWWP domain (FIG. 13). […] The third column on the left is the negative control.

HUVEC cells [3] = assay: HUVEC sprouting test; type: cell-based, human
Procedure: (§1) While no effects on the proliferation on BAEC and HUVEC cells were found, HRP-3 is able to induce HUVEC sprouting after 24 hours of stimulation. As shown in FIGS. 3 and 4 the HRP-3 can induce sprouting in HUVEC cells in a dose dependent manner. In FIG. 4 we have shown the negative control and the positive control with VEGF at 60 ng/ml. […] To be sure of ours results, experiments have been made in blind too.
Furthermore to confirm VEGF-independent angiogenic activity we performed another sprouting test with Avastin, anti-VEGF antibody in presence of VEGF and our protein.

HRP-3 [4] = target: T1, HRP-3; assay: HRP-3 induced sprouting of HUVEC blocked by single strand oligonucleotides; type: cell-based; settings: recombinant HRP-3 plus synthetic oligo
Description: We tried to twice block the protein effect of human endothelial cells sprouting with a modified single strand oligonucleotides. In samples with recombinant protein, and synthetic oligos, SEQ ID NO. 16, 17, and 18 the number of sprouted spheroids was reduced as compared to samples with recombinant protein (FIG. 19).

soluble HRP-3 = soluble HRP-3 (Homo sapiens, UniProt Q9Y3E1); assay: In vitro anti-angiogenic activity (data not shown); type: cell-based
[5] = Acute toxicity in vivo in CD-1 female mice; settings: 3, 10 and 30 mg/kg i.v. or i.p.
Procedure: We have evaluated in vivo the acute toxicity of BN210. 30 CD-1 female mice (Charles River Italia s.r.l., Via Indipendenza, 11-23885 CALCO (Lecco)), weighing 21.8-22.9 g, were divided in 6 groups, each of 5 animals, and housed in Makrolon cages (type III) at a room temperature of 22±3° C. and at a relative humidity of 55±15%. Air changes were 180-220/hour. Three doses of BN210, dissolved in phosphate buffered saline, were tested: 3, 10 and 30 mg/kg given intravenously (i.v., via the tail vain) or intraperitoneally (i.p.). BN210 concentrations in the formulates were 0.155, 0.517 and 1.551 mg/ml, respectively. Mice were observed daily, twice/day, for the appearance of toxicity signs during the 14 days following drug administration. The parameters commonly checked in the Irvin test were taken into consideration. […] After 14 days of observation, all mice were sacrificed and dissected for gross pathology examination. Any sign or pathological alterations were the subject of close scrutiny during the necropsy.

3T3 cells [6] = assay: 3T3 anchorage independent growth; type: cell-based, mouse
3T3 cells [7] = assay: 3T3 proliferation assay; type: cell-based, mouse
Procedure: (§2) In analogy with the reported HDGF activity on NIH 3T3 fibroblast, we decided to test the HRP-3 activity on these cells to develop a test able to report any interfering activity by a ligand able to bind the PWWP domain. Migration and proliferation assay of 3T3 cells in presence of increasing amounts of the protein were performed. These assays allow the definition of a strong anti-migratory effect of the HRP-3 protein, which at 30 ng/mL is able to prevent 50% of the 3T3 migration induced at 24 h by 5% FBS. This test was validated and is currently well reproducible, FIG. 2.

HUVEC [8] = assay: HUVEC migration assay in presence of increasing amounts of HRP-3; type: cell-based, human; settings: 100 ng/ml HRP-3, 5 and 16 h
Procedure: Migration assay of HUVEC in presence of increasing amounts of the protein was performed (FIG. 9). These assay allows the definition of a anti-migratory effect of the protein on human endothelial cells in a dose-dependent manner, which at 100 ng/ml is able to prevent about 80% of the migration induced at 5 and 16 h by 5% FBS.

NIH 3T3 fibroblasts = assay: 3T3 migration assay in presence of increasing amounts of HRP-3; type: cell-based, mouse; settings: 30 ng/mL HRP-3, 24 h
Procedure: as §2

HUVEC [9] = assay: Proliferation of endothelial primary cells (HUVEC); type: cell-based, human
Procedure: as §1

HUVEC [10] = assay: Tube formation assay in Matrigel; type: cell-based, human; settings: after 24 hours, preliminary result
BAEC = assay: Proliferation of endothelial primary cells (BAEC); type: cell-based
Procedure: as §1

HUVEC cells [11] = assay: mRNA expression in HUVEC by Real Time PCR; type: cell-based, human
Description: To understand the molecular basis of this stimulation, we studied mRNA expression of HRP-3 in HUVEC cell line by Real Time PCR. […] To understand if VEGF or VEGFR-2 was involved with the HRP-3 induced mechanism, we stimulated HUVEC cells with our HRP-3 and investigated mRNA levels of VEGF, VEGFR-2, HRP-3 and HDGF. The expression of those genes is not changed by HRP-3, FIGS. 5 and 6.

[12] = system: SH-SY5 neuroblastoma cells; assay: Proliferation assay of SH-SY5 cells; type: cell-based, human; settings: 100 ng/mL HRP-3, 24 and 48 h
Procedure: Angiogenesis plays a key role during neural differentiation, exerting a trophic activity on both neurons and glia. A variety of angiogenic factors have been identified so far to play an important role in the induction of angiogenesis in NBs, including vascular endothelial growth factor (VEGF). Proliferation assay of SH-SY5 and NCS-34 cells in presence of increasing amounts of the protein were performed. These assays allow the definition of a anti-proliferatory effect of the protein only on SHSY, which at 100 ng/mL is able to prevent 25% of the SH-SY5 proliferation induced at 24 and 48 h by 5% FBS.

T1 sequence (Q9Y3E1 whole entry): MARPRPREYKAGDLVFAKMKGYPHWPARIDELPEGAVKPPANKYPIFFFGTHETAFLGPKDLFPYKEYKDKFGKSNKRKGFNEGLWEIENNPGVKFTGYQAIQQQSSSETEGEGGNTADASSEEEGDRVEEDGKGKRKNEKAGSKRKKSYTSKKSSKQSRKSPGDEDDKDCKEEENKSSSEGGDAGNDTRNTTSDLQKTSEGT
soluble HRP-3, sequence (Q9Y3E1 whole entry): as above

CC[C@]1(O)C[C@H]2CN(CCc3c([nH]c4ccccc34)[C@@](C(=O)OC)(c3cc4c(cc3OC)N(C=O)[C@H]3[C@@](O)(C(=O)OC)[C@H](OC(C)=O)[C@]5(CC)C=CCN6CC[C@]43[C@@H]65)C2)C1 [vincristine, reference compound]
life span compared to negative control mice [1]: did not show any increase of their life span | concentration inhibiting proliferation of GI-LI-N cells (GI-LI-N cells; MTT): 2.5 to 5 nM

Duplex 3: derived DNA double strand designed to test different molecular shapes (chain 1 TACAACAAACCCACAAA; chain 2 TTTGTGGGTGTTGTA; chain 1: DNA, backbone and methylation of C not given here; chain 2: DNA, backbone not given here)
activity in abolishing the anti-migratory effect of HRP-3 on 3T3 cells (HRP-3 [2]): no activity

Avastin: anti-VEGF antibody
effect on VEGF-mediated HUVEC sprouting (HUVEC cells [3]; in presence of VEGF): blocks HUVEC sprouting VEGF-mediated

5′-TAC AAC ACC CAC AAA-[CH2CH2O]5-TTT GTG GGT GTT GTA-[CH2CH2O]5H-3' (TACAACACCCACAAABTTTGTGGGTGTTGTAB; PEG5 spacers, chemistry not fully specified) [SEQ ID NO. 18]
number of sprouted HUVEC spheroids versus recombinant protein alone (HRP-3 [4]): reduced

5′-PEG (40 KDa)-(NH)-T*AC AACACCCACAAAAAAUTTGTGGGTGTT GTiA-3' (BTACAACACCCACAAAAAAUTTGTGGGTGTTGTA; 5'-PEG 40 kDa amino linker, 3' inverted nucleotide, hairpin, further chemistry not given here) [BN210]
anti-angiogenic activity in vitro (soluble HRP-3): anti-angiogenic activity | effect of addition on vincristine treatment (GI-LI-N cells; 250 nM BN210 with vincristine 0.15 to 5 nM): did not enhance or inhibit | clinical or behavioural signs of toxicity ([5]; 14 days observation): no signs of clinical or behavioural alterations | gross pathology at necropsy ([5]; after 14 days): No macroscopic signs or pathological changes

5′-TACAACACCCACAAAAAATTTGTGGGTGTTGTA-3' (TACAACACCCACAAAAAATTTGTGGGTGTTGTA; DNA, backbone and methylation of C not given here) [SEQ ID NO. 16]
number of sprouted HUVEC spheroids versus recombinant protein alone (HRP-3 [4]): can block; also recorded: reduced

Duplex 2: derived DNA double strand with base changes versus Duplex 1, to test importance of sequence for binding (chain 1 TACAACATTCACAAA; chain 2 TTTGTGAATGTTGTA; chain 1: DNA, backbone and methylation of C not given here; chain 2: DNA, backbone not given here)
activity in abolishing the anti-migratory effect of HRP-3 on 3T3 cells (HRP-3 [2]): modest activity

5′-UACAACACCCACAAAAAAUUUGUGGGUGUUGUA-3' (2'-OMe) (UACAACACCCACAAAAAAUUUGUGGGUGUUGUA; all 2'-O-methyl, backbone not given here) [SEQ ID NO. 17]
number of sprouted HUVEC spheroids versus recombinant protein alone (HRP-3 [4]): reduced

HRP-3: recombinant HDGF Related Protein 3 with PWWP domain, cDNA from human cells, produced in E. Coli
concentration stimulating sprouting on HUVEC cells (HUVEC cells [3]; 24 hours of stimulation): above 100 ng/ml | concentration that blocks 3T3 anchorage independent growth (3T3 cells [6]): 0.1 ng/mL | concentration that blocks 3T3 proliferation (3T3 cells [7]): 0.1 ng/mL | prevention of HUVEC migration induced by 5% FBS (HUVEC [8]): about 80% | prevention of 3T3 migration induced by 5% FBS (NIH 3T3 fibroblasts): 50% | effect on proliferation of HUVEC (HUVEC [9]): no effects | vessel-like network of HUVEC in tube formation assay (HUVEC [10]): able to maintain vessel-like network of HUVEC | effect on proliferation of BAEC (BAEC): no effects | mRNA levels of VEGF, VEGFR-2, HRP-3 and HDGF after HRP-3 stimulation (HUVEC cells [11]; HUVEC stimulated with HRP-3): not changed | prevention of SH-SY5 proliferation induced by 5% FBS [12]: 25%

Duplex 4: derived DNA double strand with base changes versus Duplex 1, to test importance of sequence for binding (chain 1 CACACACACACACAC; chain 2 GTGTGTGTGTGTGTG; chain 1: DNA, backbone and methylation of C not given here; chain 2: DNA, backbone not given here)
activity in abolishing the anti-migratory effect of HRP-3 on 3T3 cells (HRP-3 [2]): no activity

VEGF
HRP-3 mRNA levels after VEGF treatment (HUVEC cells [11]; HUVEC treated with 60 ng/ml VEGF, versus negative control): no significant difference
